Key:
[1] = tested on: multiple sclerosis symptoms; test: Clinical case: daily sublingual dilute progesterone in a patient with multiple sclerosis; format: in vivo, human
Experimental: An adult human presented with a diagnosis of multiple sclerosis (MS) from a group of neurologists specializing in MS. They had confirmed the diagnosis with magnetic resonance imaging (MRI) scans showing demylination of major nerves. They were evaluated for hormone allergy therapy by assessing their anti-hormone antibodies and found to have elevated levels of anti-progesterone IgG and IgM antibodies. They then received progesterone 1:10 sublingual treatment, daily. Within a month of their initial diagnosis, they rated their symptoms at a 10 on a scale of 1-10, with 10 representing the worst symptoms experienced. A year after diagnosis, but before beginning low dosage hormone therapy, they rated their symptoms at a 5. They then began receiving daily sublingual progesterone (1:10) treatment. They reported an immediate reduction of their symptoms to a 3 or 4. After over a year of therapy, they reported their symptoms to be generally about a 2 with days where they have been a 0 or 1. On one occasion, the subject ran out of drops and, therefore, temporarily discontinued therapy.

serum anti-estrogen IgG = test: Competition ELISA: absorption of serum anti-estrogen IgG with specific and non-specific antigens; format: binding, human; conditions: for Percent inhibition of serum anti-estrogen IgG after absorption: absorption with 250 μg/mL antigen, NS = non-significant; for Inhibition of anti-estrogen binding to estrogen (IgG): antigen in liquid phase, range over the samples; for Absorption of serum IgG antibodies by antigen added to the liquid phase: competition ELISA, result in words
Experimental: (§1) Enzyme-linked immunosorbent assay (ELISA) was used for testing antibodies against estrogen and progesterone in the sera of patients with premenstrual asthma and with control subjects. Different rows of microtiter plates (Costar) were coated either with 100 μl of BSA concentration of 10 μg/mL or 100 μl of estrogen-BSA or progesterone-BSA optimal concentration of 10 μg/mL in 0.1 m carbonate-bicarbonate buffer (pH 9.5). Plates were incubated overnight at 4° C. and then washed three times with […] of Tris-buffered saline (TBS) containing 0.05% Tween 20, pH 7.4. […] Plates were washed with PBS-Tween 20 and then 100 μl of control or patient's serum was added to duplicate wells coated either with BSA alone or with estrogen or progesterone bound to BSA. […] Plates were incubated for 2 h (for IgG and IgM) and overnight (for IgE), and then washed four times with PBS-Tween 20. Alkaline-phosphatase-conjugated goat anti-human IgG, IgM or IgE F(ab′)2 fragment at optimal dilution of 1:700 (IgG); 1:500 (IgM) and 1:250 (IgE) was added to corresponding wells. The plates were then incubated for an additional 2 h at room temperature. After washing five times with TBS-Tween buffer, the enzyme reaction was started by adding 100 μl of para-nitrophenylphosphate in 0.1 mL of diethanolamine buffer (1 mg/ml) containing 1 mM MgCl2 and sodium azide, pH 9.8. The reaction was stopped 45 minutes later with 50 μl of 1 N NaOH. The optical density was read at 405 nm (OD405) with a microtiter reader. […] However, this non-specific O.D. was subtracted from wells coated with estrogen or progesterone bound to BSA.
(§2) For this, microtiter plates were coated with hormones and blocked by the addition of 2% BSA in PBST. 100 μl of serum diluent buffer was added to all wells. […] After a 60-minute incubation, 100 μl serum anti-estrogen or anti-progesterone was added to all wells. […] Results were calculated as a percentage of inhibition in antigen-antibody reaction.
(§3) To examine whether antibodies to estrogen or progesterone are specific or cross-reactive, competition ELISA was performed by adding specific and non-specific antigens in liquid phase and examined prevention of serum antibody binding to the antigen in solid phase. […] This cross-reaction between estrogen and progesterone antibodies may be due to structural similarities between these two hormones.

serum anti-estrogen IgE = test: Competition ELISA: absorption of serum anti-estrogen IgE with specific and non-specific antigens; format: binding, human; conditions: for Percent inhibition of serum anti-estrogen IgE after absorption: absorption with 250 μg/mL antigen, NS = non-significant; for Inhibition of IgE anti-estrogen binding: antigen in liquid phase, range over the samples; for Absorption of serum IgE antibodies by antigen added to the liquid phase: competition ELISA, result in words
Experimental: as §1, §2, §3

With `CC(=O)[C@H]1CC[C@H]2[C@@H]3CCC4=CC(=O)CC[C@]4(C)[C@H]3CC[C@]12C` [progesterone] the “Symptoms on temporary discontinuation of therapy” value ([1]; ran out of drops, over a period of several days until therapy restarted) was “steadily worsened” and the “Self-rated symptoms, generally, after over a year of therapy” value ([1]; scale of 1-10, 10 = worst, progesterone 1:10 sublingual daily, rated 5 before therapy) was roughly 2.

For Estrogen-BSA, the “Percent inhibition of serum anti-estrogen IgG after absorption” value (serum anti-estrogen IgG; Sample 1) was “(67%)”, the “Percent inhibition of serum anti-estrogen IgG after absorption” value (serum anti-estrogen IgG; Sample 2) was “(59%)” and the “Percent inhibition of serum anti-estrogen IgG after absorption” value (serum anti-estrogen IgG; Sample 3) was “(52%)”. The “Inhibition of anti-estrogen binding to estrogen (IgG)” value (serum anti-estrogen IgG) was 52-67%, the “Absorption of serum IgG antibodies by antigen added to the liquid phase” value (“Absorption of serum IgG antibodies” for short) (serum anti-estrogen IgG) was “significantly absorbed” and the “Percent inhibition of serum anti-estrogen IgE after absorption” value (serum anti-estrogen IgE; Sample 1) was “(55%)”. The “Percent inhibition of serum anti-estrogen IgE after absorption” value (serum anti-estrogen IgE; Sample 2) was “(54%)”, the “Percent inhibition of serum anti-estrogen IgE after absorption” value (serum anti-estrogen IgE; Sample 3) was “(62%)” and the “Inhibition of IgE anti-estrogen binding” value (serum anti-estrogen IgE) was 54-62%. For the same molecule, the “Absorption of serum IgE antibodies by antigen added to the liquid phase” value (shortened to “Absorption of serum IgE antibodies”) (serum anti-estrogen IgE) was “significantly absorbed”.

In the case of Progesterone-BSA [Pn], the “Percent inhibition of serum anti-estrogen IgG after absorption” value (serum anti-estrogen IgG; Sample 1) is reported as “(52%)”, the “Percent inhibition of serum anti-estrogen IgG after absorption” value (serum anti-estrogen IgG; Sample 2) is reported as “(45%)” and the “Percent inhibition of serum anti-estrogen IgG after absorption” value (serum anti-estrogen IgG; Sample 3) is reported as “(41%)”. For the same molecule, the “Inhibition of anti-estrogen binding to estrogen (IgG)” value (serum anti-estrogen IgG) was 41-52%, the “Absorption of serum IgG antibodies” value (serum anti-estrogen IgG) was “significantly absorbed” and the “Percent inhibition of serum anti-estrogen IgE after absorption” value (serum anti-estrogen IgE; Sample 1) was “(37%)”. The “Percent inhibition of serum anti-estrogen IgE after absorption” value (serum anti-estrogen IgE; Sample 2) was “(41&) %”, the “Percent inhibition of serum anti-estrogen IgE after absorption” value (serum anti-estrogen IgE; Sample 3) was “(43%)” and the “Inhibition of IgE anti-estrogen binding” value (serum anti-estrogen IgE) was 37-43%. For the same molecule, the “Absorption of serum IgE antibodies” value (serum anti-estrogen IgE) was “significantly absorbed”.

bovine serum albumin [BSA] was tested, and the “Absorption of serum IgG antibodies” value (serum anti-estrogen IgG) was “did not absorb” and the “Absorption of serum IgE antibodies” value (serum anti-estrogen IgE) was “did not absorb”.

B1: myelin basic protein (protein, UniProt P02686 1-304, looked up)
Myelin basic protein: MGNHAGKRELNAEKASTNSETNRGESEKKRNLGELSRTTSEDNEVFGEADANQNNGTSSQDTAVTDSKRTADPKNAWQDAHPADPGSRPHLIRLFSRDAPGREDNTFKDRPSESDELQTIQEDSAATSESLDVMASQKRPSQRHGSKYLATASTMDHARHGFLPRHRDTGILDSIGRFFGGDRGAPKRGSGKDSHHPARTAHYGSLPQKSHGRTQDENPVVHFFKNIVTPRTPPPSQGKGRGLSLSRFSWGAEGQRPGFGYGGRASDYKSAHKGFKGVDAQGTLSKIFKLGGRDSRSGSPMARR
B1 was tested, and the “Absorption of serum IgG antibodies” value (serum anti-estrogen IgG) was “did not absorb” and the “Absorption of serum IgE antibodies” value (serum anti-estrogen IgE) was “did not absorb”.
